A word on the IC50: it is the point on the concentration scale where inhibition reaches its midpoint. High values mean lower potency, low ones higher potency.

For this test, the target named is CK2α (protein kinase CK2 catalytic subunit α) (Homo sapiens, UniProt P68400). The test can be described thus: radiometric [γ-32P]ATP kinase assay with synthetic peptide RRRADDSDDDDD
It is filed as biochemical.

Sequence of CK2α (protein kinase CK2 catalytic subunit α) (P68400 whole entry): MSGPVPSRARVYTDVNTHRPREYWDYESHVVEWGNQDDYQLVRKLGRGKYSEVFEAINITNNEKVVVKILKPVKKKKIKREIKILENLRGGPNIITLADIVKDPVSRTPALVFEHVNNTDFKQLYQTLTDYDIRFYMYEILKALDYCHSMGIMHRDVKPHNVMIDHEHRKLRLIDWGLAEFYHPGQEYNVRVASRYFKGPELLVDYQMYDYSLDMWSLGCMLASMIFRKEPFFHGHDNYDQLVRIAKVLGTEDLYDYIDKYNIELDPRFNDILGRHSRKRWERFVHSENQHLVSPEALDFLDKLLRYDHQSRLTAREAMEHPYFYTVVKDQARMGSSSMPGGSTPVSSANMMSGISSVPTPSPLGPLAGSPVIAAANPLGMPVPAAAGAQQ

Regarding `Oc1c(Cl)c(Cl)c(Cl)c(Cl)c1Cl` [PCP, pentachlorophenol], the IC50 was found to be 3.73 µM.

These data come from publication PMC5598403 (Toxicology Reports, 2014).
